The values below are quoted from earlier work in US9266789B2, “Liquid dicyandiamide and/or alkyl thiophosphoric triamide compositions and their use in agricultural applications” (RHODIA OPERATIONS, priority 2012, dated 2016).

Take `N#CNC(=N)N` [Dicyandiamide, 2-cyanoguanidine]: the solubility in water result was “about 41 g/l”.
